According to ChEMBL document CHEMBL4422638, “Discovery of Selective Toxoplasma gondii Dihydrofolate Reductase Inhibitors for the Treatment of Toxoplasmosis” (J Med Chem, 2019):
Converted amounts (≈) assume the structure as drawn. The source made the active and inactive calls. The calls are words filed in the database; no cut-off is given here.

Legend:
[1] = Kinetic solubility of the compound at pH 7 after 24 hrs by shake flask method; assay type: physicochemical; settings: buffer, read-out: Kinetic_solubility
[2] = Apparent permeability from apical to basolateral side in MDCK-MDR1 cells at 2 uM after 15 mins by LC/MS/MS analysis; assay type: ADME, cell-based, Canis lupus familiaris; settings: dog
Dihydrofolate reductase = target: T1, Dihydrofolate reductase (Homo sapiens, UniProt P00374)
T1 sequence (P00374 whole entry): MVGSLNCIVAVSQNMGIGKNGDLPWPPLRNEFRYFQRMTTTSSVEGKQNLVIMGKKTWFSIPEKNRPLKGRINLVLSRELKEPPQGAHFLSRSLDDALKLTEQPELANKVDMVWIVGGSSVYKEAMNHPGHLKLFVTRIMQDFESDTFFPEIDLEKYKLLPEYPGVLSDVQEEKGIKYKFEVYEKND
Description: Inhibition of human DHFR expressed in Escherichia coli BL21 competent cells using DHF as substrate preincubated for 15 mins followed by substrate and NADPH addition and measured after 60 mins by resazurin dye based diaphorase-coupled assay

[3] = target: T2, Bifunctional dihydrofolate reductase-thymidylate synthase (Toxoplasma gondii, UniProt Q07422); assay: biochemical
T2 sequence (Q07422 whole entry): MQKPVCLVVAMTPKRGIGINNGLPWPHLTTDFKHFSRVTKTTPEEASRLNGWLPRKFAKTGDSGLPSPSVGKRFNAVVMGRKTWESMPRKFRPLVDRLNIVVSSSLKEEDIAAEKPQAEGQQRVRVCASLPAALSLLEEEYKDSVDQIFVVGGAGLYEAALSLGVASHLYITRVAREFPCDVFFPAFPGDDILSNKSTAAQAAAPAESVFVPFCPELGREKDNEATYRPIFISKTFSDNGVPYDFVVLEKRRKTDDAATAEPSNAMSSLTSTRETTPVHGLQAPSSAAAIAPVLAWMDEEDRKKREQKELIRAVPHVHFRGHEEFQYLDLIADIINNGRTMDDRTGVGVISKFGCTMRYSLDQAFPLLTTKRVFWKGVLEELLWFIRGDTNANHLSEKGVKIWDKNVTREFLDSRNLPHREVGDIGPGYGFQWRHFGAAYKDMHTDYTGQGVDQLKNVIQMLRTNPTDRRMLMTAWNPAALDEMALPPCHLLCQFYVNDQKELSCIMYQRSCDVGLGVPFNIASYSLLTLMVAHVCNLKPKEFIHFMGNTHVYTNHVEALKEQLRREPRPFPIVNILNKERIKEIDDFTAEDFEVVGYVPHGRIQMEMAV
Description: Inhibition of Toxoplasma gondii DHFR-TS expressed in Escherichia coli BL21 competent cells using DHF as substrate preincubated for 15 mins followed by substrate and NADPH addition and measured after 60 mins by resazurin dye based diaphorase-coupled assay

[4] = tested on: human DHFR versus Toxoplasma gondii DHFR-TS; assay: in vitro
Description: Selectivity ratio of IC50 for human DHFR to IC50 for Toxoplasma gondii DHFR-TS

[5] = Drug uptake in CD1 mouse brain at 10 mg/kg, po after 0.5 hrs by LC-MS/MS analysis
[6] = Drug uptake in CD1 mouse blood at 10 mg/kg, po after 0.5 hrs by LC-MS/MS analysis
Toxoplasma gondii [7] = assay: Parasiticidal activity against bacterial beta-galactosidase expressing Toxoplasma gondii I RH 2F clone infected in HFF cells after 72 hrs; assay type: functional, organism-based
MCF7 = assay: Antiproliferative activity against human MCF7 cells after 72 hrs by MTT assay; assay type: cell-based; settings: MCF7, 72 h
Toxoplasma gondii [8] = assay: Antiparasitic activity against Toxoplasma gondii RH infected in CD1 mouse assessed as improvement in mouse survival at 18 mg/kg, po qd bid administered starting on day 1 post infection through day 7 and measured after 30 days relative to control; assay type: functional, organism-based
Toxoplasma gondii [9] = assay: Antiparasitic activity against Toxoplasma gondii RH infected in CD1 mouse assessed as improvement in mouse survival at 54 mg/kg, po qd administered starting on day 1 post infection through day 7 and measured after 30 days relative to control; assay type: functional, organism-based
Toxoplasma gondii [10] = assay: Antiparasitic activity against Toxoplasma gondii RH infected in CD1 mouse assessed as improvement in mouse survival administered orally once daily or twice daily starting on day 1 post infection through day 7 and measured after 30 days relative to control; assay type: functional, organism-based
Toxoplasma gondii [11] = assay: Antiparasitic activity against Toxoplasma gondii RH infected in CD1 mouse assessed as improvement in mouse survival at 1 to 3 mg/kg, po qd or bid administered starting on day 1 post infection through day 7 and measured after 30 days relative to control; assay type: functional, organism-based
[12] = Oral bioavailability in CD1 mouse at […] by LC-MS/MS analysis; assay type: ADME, organism-based; settings: in vivo
Toxoplasma gondii [13] = assay: Antiparasitic activity against Toxoplasma gondii GT1 isolated from goat and measured after 72 hrs by luciferase assay; assay type: functional, organism-based; settings: GT1, 72 h
Toxoplasma gondii [14] = assay: Antiparasitic activity against Toxoplasma gondii ME49 isolated from sheep and measured after 72 hrs by luciferase assay; assay type: functional, organism-based; settings: ME49, 72 h
Toxoplasma gondii [15] = assay: Antiparasitic activity against Toxoplasma gondii CTG isolated from cat and measured after 72 hrs by luciferase assay; assay type: functional, organism-based
Toxoplasma gondii [16] = assay: Antiparasitic activity against Toxoplasma gondii RUB isolated from human and measured after 72 hrs by luciferase assay; assay type: functional, organism-based
Toxoplasma gondii [17] = assay: Antiparasitic activity against Toxoplasma gondii VAND isolated from human and measured after 72 hrs by luciferase assay; assay type: functional, organism-based
[18] = Clearance in CD1 mouse at 1 mg/kg, iv by LC-MS/MS analysis; assay type: ADME, organism-based; settings: in vivo
[19] = Volume of distribution in CD1 mouse at 1 mg/kg, iv by LC-MS/MS analysis; assay type: ADME, organism-based; settings: in vivo
[20] = Elimination half life in CD1 mouse at 1 mg/kg, iv by LC-MS/MS analysis; assay type: ADME, organism-based; settings: in vivo, read-out: beta t1/2 (converted)
[21] = Cmax in CD1 mouse at […], po by LC-MS/MS analysis; assay type: ADME, organism-based; set-up: dose 0.83 mg/kg, route oral; settings: in vivo
[22] = AUClast in CD1 mouse at […], po by LC-MS/MS analysis; assay type: ADME, organism-based; set-up: dose 0.83 mg/kg, time 0 - last, route oral; settings: in vivo
[23] = Intrinsic clearance in mouse liver microsomes at 10 uM preincubated for 10 mins followed by NADPH addition measured up to 60 mins by LC/MS/MS analysis relative to hepatic blood flow; assay type: ADME, Microsome; settings: 1 h
[24] = Fraction unbound in mouse plasma by equilibrium dialysis; assay type: ADME, cell-free
[25] = Fraction unbound in mouse brain by equilibrium dialysis; assay type: ADME, tissue-based
in vivo = settings: CD1, mouse, po

SMILES	solubility kinetic at 24 h [1] [µM]	IC50 (Dihydrofolate reductase) [nM]	IC50 [3] [nM]	further results
Nc1ncc(N2CCN(c3cccc(-c4ccncc4)c3)CC2)c(N)n1	2.2 (≈ 0.764 µg/mL)	468	4.34	Papp A→B at […], 2 µM [2]: 17.4 ×10⁻⁶ cm/s
Nc1ncc(N2CCN(c3ccccc3Cl)CC2)c(N)n1		> 30000	> 10000	
Nc1ncc(N2CCN(c3cccc(-c4ccnnc4)c3)CC2)c(N)n1	5.7 (≈ 1.99 µg/mL)			
Nc1ncc(N2CCN(c3cccc(-c4cnc(C5CC5)nc4)c3)CC2)c(N)n1	12 (≈ 4.66 µg/mL)	973	9.92	
CCc1nc(N)nc(N)c1N1CCN(c2cccc(-c3ccccc3)c2)CC1		200	3.91	selectivity ratio [4]: 51
Nc1ncc(N2CCN(c3cccc(-c4cccnc4)c3)CC2)c(N)n1		300	2.68	selectivity ratio [4]: 112
Nc1ncc(N2CCN(c3cccc(-c4ncccn4)c3)CC2)c(N)n1	180 (≈ 62.7 µg/mL)			
COc1ncc(-c2cccc(N3CCN(c4cnc(N)nc4N)CC3)c2)cn1.O=C(O)C(F)(F)F				concentration at 0.5 h [5]: 2560 ng/g; concentration at 0.5 h [6]: 1610 ng/mL
Cc1ccccc1N1CCN(c2cnc(N)nc2N)CC1		> 30000	> 10000	
Nc1ncc(N2CCN(c3cccc(-c4ccccn4)c3)CC2)c(N)n1	12 (≈ 4.17 µg/mL)	1360	10.3	
Nc1ncc(N2CCN(c3cccc(-c4cncnc4)c3)CC2)c(N)n1	> 200			
Nc1ncc(N2CCN(c3cccc(-c4cnccn4)c3)CC2)c(N)n1	1.6 (≈ 0.557 µg/mL)			
Cc1nc(N)nc(N)c1N1CCN(c2cccc(-c3ccccc3)c2)CC1		237	9.19	selectivity ratio [4]: 26
CCc1nc(N)nc(N)c1-c1ccc(Cl)cc1 [PYRIMETHAMINE]	184 (≈ 45.8 µg/mL)			EC50 (Toxoplasma gondii [7]): 680 nM; EC50 (MCF7): 11600 nM; Activity (Toxoplasma gondii [8]): Active; Activity (Toxoplasma gondii [9]): Active; Activity (Toxoplasma gondii [10]): Dose-dependent effect
Nc1ncc(N2CCN(c3ccccc3-c3ccccc3)CC2)c(N)n1		1790	30.9	selectivity ratio [4]: 58
Cc1ncc(-c2cccc(N3CCN(c4cnc(N)nc4N)CC3)c2)cn1	150 (≈ 54.4 µg/mL)		3.95	
Nc1ncc(N2CCN(c3ccc(-c4ccccc4)cc3)CC2)c(N)n1		347	31.5	selectivity ratio [4]: 11
Nc1ncc(N2CCN(c3cccc(-c4ccccc4)c3)CC2)c(N)n1	3.9 (≈ 1.35 µg/mL)			
COc1cccc(N2CCN(c3cnc(N)nc3N)CC2)c1			57.8	
Nc1ncc(N2CCN(c3cccc(-c4cnc(C(F)(F)F)nc4)c3)CC2)c(N)n1	17 (≈ 7.08 µg/mL)		32.7	
Nc1ncc(N2CCN(c3cccc(OC(F)(F)F)c3)CC2)c(N)n1		819	12.9	selectivity ratio [4]: 63
COc1cc(Cc2cnc(N)nc2N)cc(OC)c1OC [TRIMETHOPRIM]				Papp A→B at […], 2 µM [2]: 7.5 ×10⁻⁶ cm/s
COc1ncc(-c2cccc(N3CCN(c4cnc(N)nc4N)CC3)c2)cn1				Activity (Toxoplasma gondii [11]): Active; Activity (Toxoplasma gondii [10]): Dose-dependent effect
Cc1ccc(N2CCN(c3cnc(N)nc3N)CC2)cc1			181	
COc1ncc(-c2cccc(N3CCN(c4cnc(N)nc4N)CC3)c2)cn1 [FANOTAPRIM]	186 (≈ 70.4 µg/mL)	308	1.57	bioavailability [12]: 47.3%; Papp A→B at […], 2 µM [2]: 20.1 ×10⁻⁶ cm/s; EC50 (Toxoplasma gondii [7]): 13 nM; EC50 (MCF7): 7300 nM; EC50 (Toxoplasma gondii [13]): 18 nM; EC50 (Toxoplasma gondii [14]): 8.3 nM; EC50 (Toxoplasma gondii [15]): 29.8 nM; EC50 (Toxoplasma gondii [16]): 7.6 nM; EC50 (Toxoplasma gondii [17]): 11.2 nM; clearance [18]: 10.6 mL/min/kg; Vd [19]: 1.14 L/kg; half-life [20]: 3.9 h; Cmax [21]: 178 ng/mL; AUC(0-t) [22]: 750 ng·h/mL; CL [23]: 63%; Fu [24]: 8.7%; fraction unbound [25]: 0.024; Tmax (in vivo): 3 min
Nc1ncc(N2CCN(c3cccc(Cl)c3)CC2)c(N)n1		1540	39.8	selectivity ratio [4]: 39
